From patent US20230203044A1, “PYRAZOLO[1,5-D][1,2,4]TRIAZINE-5(4H)-ACETAMIDES AS INHIBITORS OF THE NLRP3 INFLAMMASOME” (JANSSEN PHARMACEUTICA NV, priority 2020, published 2023)

Experiments:
NLRP3 inflammasome = test: PBMC assay: IL-1β in LPS-stimulated human PBMCs (MSD); assay type: cell-based; settings: human PBMCs, 100 ng/ml LPS for 6 hrs, IL-1β in supernatant via MSD, read-out: IL1β IC50
Description: The activity of a compound according to the present invention can be assessed by in vitro methods.
Peripheral venous blood was collected from healthy individuals and human peripheral blood mononuclear cells (PBMCs) were isolated from blood by Ficoll-Histopaque (Sigma-Aldrich, A0561) density gradient centrifugation. After isolation, PBMCs were stored in liquid nitrogen for later use. Upon thawing, PBMC cell viability was determined in growth medium (RPMI media supplemented with 10% fetal bovine serum, 1% Pen-Strep and 1% L-glutamine). […] PBMCs were added at a density of 7.5×10^4 cells per well and incubated for 30 min in a 5% CO2 incubator at 37° C. LPS stimulation was performed by addition of 100 ng/ml LPS (final concentration, Invivogen, tlrl-smlps) for 6 hrs followed by collection of cellular supernatant and the analysis of IL-1β (μM) and TNF cytokines levels (μM) via MSD technology according to manufacturers' guidelines (MSD, K151A0H).

TNF = test: PBMC assay: TNF cytokine levels in LPS-stimulated human PBMCs (MSD); assay type: cell-based; settings: 100 ng/ml LPS for 6 hrs, TNF in supernatant via MSD
Description: Peripheral venous blood was collected from healthy individuals and human peripheral blood mononuclear cells (PBMCs) were isolated from blood by Ficoll-Histopaque (Sigma-Aldrich, A0561) density gradient centrifugation. After isolation, PBMCs were stored in liquid nitrogen for later use. Upon thawing, PBMC cell viability was determined in growth medium (RPMI media supplemented with 10% fetal bovine serum, 1% Pen-Strep and 1% L-glutamine). Compounds were spotted in a 1:3 serial dilution in DMSO and diluted to the final concentration in 30 μl medium in 96 well plates (Falcon, 353072). PBMCs were added at a density of 7.5×10^4 cells per well and incubated for 30 min in a 5% CO2 incubator at 37° C. LPS stimulation was performed by addition of 100 ng/ml LPS (final concentration, Invivogen, tlrl-smlps) for 6 hrs followed by collection of cellular supernatant and the analysis of IL-1β (μM) and TNF cytokines levels (μM) via MSD technology according to manufacturers' guidelines (MSD, K151A0H).
The IC50 values (for IL-1β) and EC50 values (TNF) were obtained on compounds of the invention/examples, and are depicted in the following table: […]

IC50 (NLRP3 inflammasome) [nM] | EC50 (TNF) [nM] | SMILES
5660 | > 10000 | CC(C)c1nn(CC(=O)N[C@H]2CN(C(=O)OC(C)(C)C)CC[C@H]2O)c(=O)c2cc(C3CC3)nn12 [Final Cpd 34]
510 | > 10000 | CCCc1cc2c(=O)n(CC(=O)Nc3ccnnc3)nc(C(C)C)n2n1 [Final Cpd 145]
280 | > 10000 | CC(C)c1nn(CC(=O)Nc2ccc3ncnn3c2)c(=O)c2cc(C3CC3)nn12 [Final Cpd 82]
7750 | > 10000 | CC(C)c1nn(CC(=O)Nc2cnc3ccnn3c2)c(=O)c2cc(C3CC3)nn12 [Final Cpd 101]
230 | > 10000 | Cc1nc2ccc(NC(=O)Cn3nc(C(C)C)n4nc(C5CC5)cc4c3=O)cn2n1 [Final Cpd 89]
560 | > 10000 | CN(C)c1nn(CC(=O)Nc2ccc3nncn3c2)c(=O)c2cc(C3CC3)nn12 [Final Cpd 37]
1710 | > 10000 | CCc1cc2c(=O)n(CC(=O)Nc3ccncn3)nc(CC)n2n1 [Final Cpd 13]
600 | > 10000 | CCCc1cc2c(=O)n(CC(=O)Nc3ccncn3)nc(C(C)C)n2n1 [Final Cpd 12]
4190 | > 10000 | Cc1nn(CC(=O)NC2CCCC2O)c(=O)c2cc(C3CC3)nn12 (stereo not drawn) [Final Cpd 65]
520 | > 10000 | CC(C)c1nn(CC(=O)Nc2cccnc2)c(=O)c2cc(C3CC3)nn12 [Final Cpd 119]
320 | > 10000 | CC(C)c1cc2c(=O)n(CC(=O)Nc3ccc4nncn4c3)nc(N(C)C)n2n1 [Final Cpd 148]
600 | > 10000 | CCc1nn(CC(=O)N[C@H]2C[C@@](C)(O)C2)c(=O)c2cc(I)nn12 [Final Cpd 7]
~2450 | > 10000 | CC(C)Cc1nn(CC(=O)Nc2ccc3nncn3c2)c(=O)c2cc(C3CC3)nn12 [Final Cpd 69]
920 | > 10000 | CC(C)c1nn(CC(=O)Nc2ccc3nnc(C(F)F)n3c2)c(=O)c2cc(C3CC3)nn12 [Final Cpd 92]
1060 | > 10000 | CC(C)c1nn(CC(=O)N[C@H]2C[C@@](C)(O)C2)c(=O)c2c(F)c(C3CC3)nn12 [Final Cpd 43]
44 | > 10000 | CC(C)c1nn(CC(=O)Nc2ccc3nncn3n2)c(=O)c2cc(C3CC3)nn12 [Final Cpd 166, N-([1,2,4]triazolo[4,3-b]pyridazin-6-yl)-2-(2-cyclopropyl-7-isopropyl-4-oxopyrazolo[1,5-d][1,2,4]triazin-5(4H)-yl)acetamide]
1560 | > 10000 | CC(C)c1nn(CC(=O)N[C@@H]2CCOC[C@@H]2O)c(=O)c2cc(C3CC3)nn12 [Final Cpd 33]
1410 | > 10000 | CC(C)c1nn(CC(=O)Nc2ccn3c(F)cnc3c2)c(=O)c2cc(C3CC3)nn12 [Final Cpd 136]

Further lines, the compound ahead of its results:

SMILES | IC50 (NLRP3 inflammasome) [nM] | EC50 (TNF) [nM]
O=C(Cn1nc(C2CC2)n2nc(C3CC3)cc2c1=O)Nc1ccc2nncn2n1 [Final Cpd 163, N-([1,2,4]triazolo[4,3-b]pyridazin-6-yl)-2-(2,7-dicyclopropyl-4-oxopyrazolo[1,5-d][1,2,4]triazin-5(4H)-yl)acetamide] | 620 | > 10000
CC[C@]1(O)C[C@@H](NC(=O)Cn2nc(C(C)C)n3nc(C4CC4)cc3c2=O)C1 [Final Cpd 192, 2-(2-cyclopropyl-7-isopropyl-4-oxopyrazolo[1,5-d][1,2,4]triazin-5(4H)-yl)-N-((1r,3s)-3-ethyl-3-hydroxycyclobutyl)acetamide] | 610 | > 10000
CCc1nn(CC(=O)Nc2ccccc2OC)c(=O)c2ccnn12 [Final Cpd 77] | > 10000 | > 10000
CC(C)c1nn(CC(=O)Nc2ccc3nncn3n2)c(=O)c2cc(C(C)(F)F)nn12 [Final Cpd 176] | 82 | > 10000
CC(C)c1nn(CC(=O)Nc2ccc3nc(C(F)(F)F)cn3c2)c(=O)c2cc(C3CC3)nn12 [Final Cpd 167] | 380 | > 10000
CCc1cc2c(=O)n(CC(=O)Nc3ccc4nncn4c3)nc(C(C)C)n2n1 [Final Cpd 146] | 210 | > 10000
CCc1nn(CC(=O)Nc2ccncn2)c(=O)c2cc(NC(C)=O)nn12 [Final Cpd 184, 2-(2-acetamido-7-ethyl-4-oxopyrazolo[1,5-d][1,2,4]triazin-5(4H)-yl)-N-(pyrimidin-4-yl)acetamide] | > 10000 | > 10000
CC(C)c1cc2c(=O)n(CC(=O)Nc3ccncn3)nc(C(C)C)n2n1 [Final Cpd 3] | 280 | > 10000
Cc1nn(CC(=O)NC23CCCC2C2CCCC23)c(=O)c2cc(C3CC3)nn12 (stereo not drawn) [Final Cpd 67] | > 10000 | > 10000
Cc1nn(CC(=O)N[C@]2(Cc3ccccc3)C[C@H](O)C2)c(=O)c2cc(C3CC3)nn12 [Final Cpd 50] | > 10000 | > 10000
Cc1nn(CC(=O)Nc2ccncn2)c(=O)c2cc(C3CC3)nn12 [Final Cpd 48] | 890 | > 10000
Cc1cc(NC(=O)Cn2nc(C(C)C)n3nc(C4CC4)cc3c2=O)ccn1 [Final Cpd 127] | 180 | > 10000
CC(C)c1nn(CC(=O)Nc2cc(C(F)(F)F)ncn2)c(=O)c2cc(C3CC3)nn12 [Final Cpd 83] | > 10000 | > 10000
CCc1nn(CC(=O)Nc2ccncn2)c(=O)c2cc(NC)nn12 [Final Cpd 20] | 1140 | > 10000
CC(C)c1nn(CC(=O)NC2CCC(=O)N(C)C2)c(=O)c2cc(C3CC3)nn12 (stereo not drawn) [Final Cpd 29] | 1790 | > 10000
CC(C)c1nn(CC(=O)Nc2ccc(=O)n(CC3CC3)c2)c(=O)c2cc(C3CC3)nn12 [Final Cpd 35] | 380 | > 10000
CC(C)c1nn(CC(=O)Nc2ccc3c(C#N)ncn3c2)c(=O)c2cc(C3CC3)nn12 [Final Cpd 108] | 540 | > 10000
C[C@]1(O)C[C@@H](NC(=O)Cn2nc(CCCC(F)(F)F)n3nc(C4CC4)cc3c2=O)C1 [Final Cpd 195, 2-(2-cyclopropyl-4-oxo-7-(4,4,4-trifluorobutyl)pyrazolo[1,5-d][1,2,4]triazin-5(4H)-yl)-N-((ls,3s)-3-hydroxy-3-methylcyclobutyl)acetamide] | > 10000 | > 10000
CC(C)c1nn(CC(=O)N[C@@H]2CCCNC2)c(=O)c2cc(C3CC3)nn12 [Final Cpd 187, (R)-2-(2-cyclopropyl-7-isopropyl-4-oxopyrazolo[1,5-d][1,2,4]triazin-5(4H)-yl)-N-(piperidin-3-yl)acetamide] | 800 | > 10000
Cc1nn(CC(=O)NC2(c3ccc(Cl)cc3Cl)CCC2)c(=O)c2cc(C3CC3)nn12 [Final Cpd 63] | 7890 | > 10000
Cc1nccc(NC(=O)Cn2nc(C(C)C)n3nc(C4CC4)cc3c2=O)c1F [Final Cpd 97] | 200 | > 10000
CC(C)c1nn(CC(=O)Nc2cc(C(F)F)[nH]n2)c(=O)c2cc(C3CC3)nn12 [Final Cpd 85] | 340 | > 10000
CC(C)c1nn(CC(=O)N[C@H]2C[C@@](C)(O)C2)c(=O)c2cc(I)nn12 [Final Cpd 24] | 110 | > 10000
CCc1cc2c(=O)n(CC(=O)N[C@H]3C[C@@](C)(O)C3)nc(C(C)C)n2n1 [Final Cpd 140] | 210 | > 10000
CC(C)c1nn(CC(=O)Nc2cc(C#N)c3nncn3c2)c(=O)c2cc(C3CC3)nn12 [Final Cpd 193, N-(8-cyano-[1,2,4]triazolo[4,3-a]pyridin-6-yl)-2-(2-cyclopropyl-7-isopropyl-4-oxopyrazolo[1,5-d][1,2,4]triazin-5(4H)-yl)acetamide] | 980 | > 10000
CC(C)c1nn(CC(=O)Nc2ccncn2)c(=O)c2cc(C(C)O)nn12 (stereo not drawn) [Final Cpd 185, 2-(2-(1-hydroxyethyl)-7-sopropyl-4-oxopyrazolo[1,5-d][1,2,4]triazin-5(4H)-yl)-N-(pyrimidin-4-yl)acetamide] | 4110 | > 10000
Cc1noc(C)c1[C@@H](c1ccccc1)N1CC(NC(=O)Cn2nc(C)n3nc(C4CC4)cc3c2=O)C1 [Final Cpd 58] | 9410 | > 10000
CC(C)c1nn(CC(=O)Nc2ccc3nccn3n2)c(=O)c2cc(C3CC3)nn12 [Final Cpd 165] | 100 | > 10000
CCc1nn(CC(=O)Nc2ccncc2)c(=O)c2ccnn12 [Final Cpd 79] | > 10000 | > 10000
COc1nccc(NC(=O)Cn2nc(C(C)C)n3nc(C4CC4)cc3c2=O)n1 [Final Cpd 132] | 720 | > 10000
